These are literature values, as cited in article PMC2757550 (Bioconjugate chemistry, 2009).

In the data set the test system is mouse vas deferens preparation.

On to Dmt-Tic-Glu-NH(CH2)5NH-fluorescein, for which the “removal from preparation by extensive washing (in words)” value is on record as “cannot be removed from the mouse vas deferens preparation by extensive washing”.
